The values below come from patent publication US8569327B2, “Phenanthroindolizidine derivative and NFκB inhibitor containing same as active ingredient” (Kabushiki Kaisha Yakult Honsha, priority 2008, dated 2013).

Values after ≈ are worked out from the molar mass of the structure shown. Read-outs that look alike come from different tables or passages of the source. Some results are limits rather than exact numbers.

Broadly, the IC50 is the midpoint of a concentration-inhibition curve.

In one test the test system is NFκB. In words: Inhibitory action on the NFκB activity, luciferase assay in SW480/NRE-Luc cells. It counts as cell-based, human. The settings on record: for IC50: Homo sapiens. The source says: (§1) The action of the phenanthroindolizidine alkaloid compound of the present invention on the NFκB activity was studied using a luciferase assay. Human colon cancer SW480 cells were transfected with pNFκB-Luc Plasmid (Stratagene), which is a reporter vector in which a five-time tandem repeat of the NFκB responsive element (NRE) is integrated into the upstream of the luciferase gene, using Lipofectamine 2000 (Invitrogen Corporation) in accordance with the attached operating procedure. Subsequently, the cells were cultured in an RPMI1640 medium containing 10% FBS, 100 U/mL penicillin, 100 μg/mL streptomycin, and 0.5 mg/mL G418 to produce SW480 cells having the luciferase gene, the expression of which is regulated by NRE, stably introduced therein (SW480/NRE-Luc cells). Likewise, SW480 cells were transfected with pGL3-Control Vector (Promega Corporation), which is a reporter vector in which the SV40 promoter is integrated into the upstream of the luciferase gene, to produce SW480 cells having the luciferase gene, the expression of which is regulated by the SV40 promoter, stably introduced therein (SW480/SV40-Luc cells). The SW480/NRE-Luc cells or the SW480/SV40-Luc cells were suspended in an RPMI1640 medium containing 10% FBS, 100 U/mL penicillin, and 100 μg/mL streptomycin (10% FBS/RPMI1640), and then seeded in a 96-well microplate, followed by culturing under conditions of 5% CO2 and at 37° C. (5000 cells/well). After an overnight culture, the compound of the present invention was added, followed by culturing for one hour. Further, 50 ng/mL TNFα (Sigma-Aldrich Corporation) was added, followed by culturing for four hours. Subsequently, a Steady-Glo Luciferase Assay reagent (Promega Corporation) was added, and the luminescent intensity was detected by SpectraMax M5e (Molecular Devices, Inc.) to measure the intracellular luciferase activity. It is to be noted that the action of the compound of the present invention on the NFκB activity or the SV40 promoter activity was shown as IC50 values (the concentration of a test compound needed for 50% inhibition of the induction of the luciferase expression).

A further test relates to SV40 promoter. The experiment in a line: SV40 promoter activity, luciferase assay in SW480/SV40-Luc cells. It is filed as cell-based, human. Particulars: for IC50: Homo sapiens.
Text: as §1

For test [1], the system named is human colon cancer SW480 cells. In words: Inhibitory action on the proliferation of SW480 cells. It is filed as cell-based. The settings on record: 48 hours, TetraColor ONE; for IC50: Homo sapiens, SW480. Here is the method: (§2) The action of the phenanthroindolizidine alkaloid compound of the present invention on the proliferation of human colon cancer SW480 cells, HT-29 cells, and human non-small cell lung cancer A549 cells was studied. The SW480 cells were suspended in a 10% FBS/RPMI1640 and then seeded in a 96-well microplate, followed by culturing in 5% CO2 at 37° C. (2000 cells/well). The A549 cells and the HT-29 cells were each suspended in a DMEM medium containing 10% FBS, 100 U/mL penicillin, and 100 μg/mL streptomycin (10% FBS/DMEM) and a DMEM F-12 HAM medium containing 10% FBS, 100 U/mL penicillin, and 100 μg/mL streptomycin (10% FBS/DMEM F12 HAM), and then seeded in 96-well microplates, followed by culturing in 5% CO2 at 37° C. (1000 cells/well). After an overnight culture, the compound of the present invention was added, followed by further culturing for 48 hours (SW480 cells) and 96 hours (A549 cells and HT-29 cells). After culturing, the number of viable cells was counted using TetraColor ONE (Seikagaku Corporation) in accordance with the attached operating procedure. The results were expressed as the concentration of a test compound needed for 50% inhibition of the proliferation of the cells (IC50).

Test [2] concerns human colon cancer HT-29 cells. The experiment in a line: Inhibitory action on the proliferation of HT-29 cells. It is filed as cell-based. The settings on record: 96 hours, TetraColor ONE; for IC50: Homo sapiens, HT-29. Here is the method:
as §2

Test [3] relates to human non-small cell lung cancer A549 cells. The experiment in a line: Inhibitory action on the proliferation of A549 cells. It is filed as cell-based. The settings on record: 96 hours, TetraColor ONE; for IC50: Homo sapiens, A549. Here is the method: as §2
Setting [4] is: SW480, read-out: NFκB inhibitory activity IC50.
Where [5] appears, read: SW480, read-out: SV40 promoter inhibitory activity IC50.
Where [6] appears, read: SW480/NRE-Luc cells, compound 1 h then 50 ng/mL TNFα 4 h, luciferase.
The mark [7] stands for this setting: SW480/SV40-Luc cells, luciferase.

With `COc1cc2c3c(c4ccc(N)cc4c2cc1OC)C[C@@H]1CCCN1C3.CS(=O)(=O)O` [Compound 54, (S)-3-amino-6,7-dimethoxy-9,10,11,12,12a,13-hexahydro-9a-aza-cyclopenta[b]triphenylene methanesulfonate], the IC50 in the test on NFκB (setting [4]) was 0.002 µg/mL; with SV40 promoter (setting [5]), over 0.01 µg/mL; in test [1] it was 0.0039 µg/mL; in test [2], 0.00415 µg/mL; in test [3], 0.0028 µg/mL.
“benzhydryl-((S)-6,7-dimethoxy-3-pyrrolidine-9,10,11,12,12a,13-hexahydro-9a-aza-cyclopenta[b]triphenylene-3-yl)-amine methanesulfonate [Compound 58]”: the “NFκB inhibitory activity IC50” value in the test on NFκB (setting [6]) was determined as 0.0162 µg/mL. Further, the “SV40 promoter inhibitory activity IC50” value with SV40 promoter (setting [7]) was over 10 µg/mL. Further, the “SW480 proliferation inhibitory action IC50” value in test [1] was determined as 0.0423 µg/mL. In addition, the “HT-29 proliferation inhibitory action IC50” value in test [2] was 0.0522 µg/mL. For the same compound, in test [3], the “A549 proliferation inhibitory action IC50” value worked out at 0.0207 µg/mL.
The like results for `COc1cc2c3c(c4ccc(N5CCCC5)cc4c2cc1OC)C[C@@H]1CCCN1C3.CS(=O)(=O)O` [Compound 57, (S)-6,7-dimethoxy-3-pyrrolidine-9,10,11,12,12a,13-hexahydro-9a-aza-cyclopenta[b]triphenylene methanesulfonate] were, in that order, 0.00067 µg/mL, over 10 µg/mL, 0.001 µg/mL, 0.0741 µg/mL and 0.0611 µg/mL.
For the compound `COc1cc2c3c(c4ccccc4c2cc1OC)[C@H](O)[C@@H]1CCCN1C3.Cl` [Compound 1, (12aS,13S)-6,7-dimethoxy-9,10,11,12,12a,13-hexahydro-9a-aza-cyclopenta[b]triphenylene-13-ol hydrochloride], the IC50 with NFκB (setting [4]) is 0.0027 µg/mL; in the test with SV40 promoter (setting [5]) it was over 1 µg/mL; in test [1], 0.0051 µg/mL; in test [2], 0.0037 µg/mL; in test [3] it was 0.0026 µg/mL.
As for `COc1cc2c3c(c4ccc(NC(=O)OCC(C)C)cc4c2cc1OC)C[C@@H]1CCCN1C3.CS(=O)(=O)O` [Compound 55, ((S)-6,7-dimethoxy-9,10,11,12,12a,13-hexahydro-9a-aza-cyclopenta[b]triphenylene-3-yl)-carbamic acid isobutyl ester methanesulfonate], the IC50 was 0.0005 µg/mL in the test on NFκB (setting [4]); over 10 µg/mL in the test on SV40 promoter (setting [5]); 0.00076 µg/mL in test [1]; 0.046 µg/mL in test [2]; 0.0337 µg/mL in test [3].
Turning to `COc1cc2c3c(c4ccc(F)cc4c2cc1OC)[C@H](O)[C@@H]1CCCN1C3.Cl` [Compound 5, (12aS,13S)-3-fluoro-6,7-dimethoxy-9,10,11,12,12a,13-hexahydro-9a-aza-cyclopenta[b]triphenylene-13-ol hydrochloride], the IC50 with NFκB (setting [4]) is 0.0207 µg/mL; in the test on SV40 promoter (setting [5]), over 1 µg/mL; in test [1], 0.0392 µg/mL; in test [2], 0.0072 µg/mL; in test [3], 0.0041 µg/mL.
For `COc1cc2c3c(c4ccccc4c2cc1OC)C[C@@H]1CCCN1C3.CS(=O)(=O)O` [Compound 53, (S)-6,7-dimethoxy-9,10,11,12,12a,13-hexahydro-9a-aza-cyclopenta[b]triphenylene methanesulfonate] the same measures were 0.0191 µg/mL, over 10 µg/mL, 0.0329 µg/mL, 0.0585 µg/mL and 0.0289 µg/mL.
For `S=C(S)N1CCCC1` [PDTC, pyrrolidine dithiocarbamate, reference compound], the IC50 was 2.4 µg/mL (≈ 16.3 µM) in the test on NFκB (SW480/NRE-Luc cells, compound 1 h then 50 ng/mL TNFα 4 h, luciferase, read-out: NFκB inhibitory activity IC50) and over 10 µg/mL in the test on SV40 promoter (SW480/SV40-Luc cells, luciferase, read-out: SV40 promoter inhibitory activity IC50).
`COc1cc2c3c(c4ccc(NC(=O)OCC(C)C)cc4c2cc1OC)C[C@@H]1CCCN1C3.Cl` [Compound 42, ((S)-6,7-dimethoxy-9,10,11,12,12a,13-hexahydro-9a-aza-cyclopenta[b]triphenylene-3-yl)-carbamic acid isobutyl ester hydrochloride]: the IC50 in the test on NFκB (setting [4]) is 0.117 µg/mL; with SV40 promoter (setting [5]) it was over 10 µg/mL; in test [1] it was 0.0963 µg/mL; in test [2] it was 0.019 µg/mL; in test [3], 0.027 µg/mL.
